Experimental data reported in patent US20010014742A1, “Water-soluble prodrugs of azole compounds” (priority 1999, published 2001).
Converted amounts (≈) assume the structure as drawn.

Assay: aqueous solubility
Assay type: physicochemical
Conditions: water at pH 6.8

solubility: 0.6 µg/mL (≈ 1.37 µM)
SMILES: C[C@@H](c1nc(-c2ccc(C#N)cc2)cs1)C(O)(Cn1cncn1)c1ccc(F)cc1F (stereo partly drawn) [the above triazole compound, (2R,3R)-3-[4-(4-cyanophenyl)thiazol-2-yl]-2-(2,4-difluorophenyl)-1-(1H,1,2,4-triazol-1-yl)-butan-2-ol]
